Experimental data: ChEMBL document CHEMBL1201862, “PubChem BioAssay data set” (2004)
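How tested: cells in 96-well plates exposed to compound for 48 hours at five concentrations. The concentration for 50% growth inhibition is given as GI50.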 The source made the active and inactive calls. No stated cut-off is given here; in the data, active = GI50 up to about 1.1 µM and inactive = higher. Peptide text beside a SMILES is read from it. * marks the point of attachment. Trt = c1ccc(C(c2ccccc2)(c2ccccc2)*)cc1; Cbz = O=C(OCc1ccccc1)*

Key:
Experiment in all cases: DTP human tumour cell line panel, 48 h
786-0 = system: 786-0
A549 = system: A549
ACHN = system: ACHN
CCRF-CEM = system: CCRF-CEM
DU-145 = system: DU-145
HCC 2998 = system: HCC 2998
HCT-116 = system: HCT-116
HL-60 = system: HL-60
LOX IMVI = system: LOX IMVI
MDA-N = system: MDA-N
NCI-H23 = system: NCI-H23
NCI-H460 = system: NCI-H460
OVCAR-5 = system: OVCAR-5
OVCAR-8 = system: OVCAR-8
SF-268 = system: SF-268
SK-MEL-2 = system: SK-MEL-2
SNB-19 = system: SNB-19
TK-10 = system: TK-10
HOP-92 = system: HOP-92

Compound	GI50 (786-0)	GI50 (A549)	GI50 (ACHN)	GI50 (CCRF-CEM)	GI50 (DU-145)	GI50 (HCC 2998)	GI50 (HCT-116)	GI50 (HL-60)	GI50 (LOX IMVI)	GI50 (MDA-N)	GI50 (NCI-H23)	GI50 (NCI-H460)	GI50 (OVCAR-5)	GI50 (OVCAR-8)	GI50 (SF-268)	GI50 (SK-MEL-2)	GI50 (SNB-19)	GI50 (TK-10)	GI50 (HOP-92)
COC(=O)C1Cc2cc3c(cc2C1=O)CCC3 (stereo not drawn)	> 100 µM (inactive)	> 100 µM (inactive)	> 100 µM (inactive)	92.7 µM (inactive)	> 100 µM (inactive)	> 100 µM (inactive)	> 100 µM (inactive)	> 100 µM (inactive)	> 100 µM (inactive)	> 100 µM (inactive)	> 100 µM (inactive)	> 100 µM (inactive)	> 100 µM (inactive)	> 100 µM (inactive)	> 100 µM (inactive)	> 100 µM (inactive)	> 100 µM (inactive)	> 100 µM (inactive)	
COc1ccc(-c2cc(-c3ccc(Nc4ccnc5cc(C(F)(F)F)ccc45)cc3)nc(N)c2C#N)c2ccccc12	> 100 µM (inactive)	> 100 µM (inactive)	> 100 µM (inactive)		> 100 µM (inactive)	> 100 µM (inactive)	97.9 µM (inactive)	70.3 µM (inactive)	29.4 µM (inactive)		> 100 µM (inactive)	> 100 µM (inactive)	> 100 µM (inactive)		> 100 µM (inactive)	> 100 µM (inactive)	> 100 µM (inactive)	> 100 µM (inactive)	> 100 µM (inactive)
COc1ccc(N(C)S(=O)(=O)c2ccccc2)cc1	> 100 µM (inactive)	> 100 µM (inactive)	> 100 µM (inactive)	> 100 µM (inactive)	> 100 µM (inactive)	56 µM (inactive)	> 100 µM (inactive)	> 100 µM (inactive)	> 100 µM (inactive)	> 100 µM (inactive)	67.1 µM (inactive)	94.8 µM (inactive)	> 100 µM (inactive)	> 100 µM (inactive)	> 100 µM (inactive)	> 100 µM (inactive)	> 100 µM (inactive)	> 100 µM (inactive)	
O=C1Nc2c(Cl)cc(Cl)cc2/C1=N/NC(=O)c1ccncc1	17.4 µM (inactive)	> 100 µM (inactive)	38 µM (inactive)	29.4 µM (inactive)		44.1 µM (inactive)	19.1 µM (inactive)	9.64 µM (inactive)	16.9 µM (inactive)	15.7 µM (inactive)	22.8 µM (inactive)	46.7 µM (inactive)	61 µM (inactive)	20.6 µM (inactive)		19 µM (inactive)	> 100 µM (inactive)	73.1 µM (inactive)	33.2 µM (inactive)
CC(C)(C)OC(=O)NCC(O)CNC(=O)OC(C)(C)C	> 100 µM (inactive)	> 100 µM (inactive)	> 100 µM (inactive)	> 100 µM (inactive)	> 100 µM (inactive)	> 100 µM (inactive)	> 100 µM (inactive)	> 100 µM (inactive)	> 100 µM (inactive)		> 100 µM (inactive)	> 100 µM (inactive)	> 100 µM (inactive)	> 100 µM (inactive)	> 100 µM (inactive)		> 100 µM (inactive)	> 100 µM (inactive)	> 100 µM (inactive)
Cc1ccc(S(=O)(=O)C2=Cc3ccccc3C2(O)c2ccccc2)cc1 (stereo not drawn)	> 10 µM (inactive)	32.2 µM (inactive)	34.3 µM (inactive)	15.7 µM (inactive)	34.8 µM (inactive)	10.4 µM (inactive)	33.3 µM (inactive)	13.2 µM (inactive)	17.6 µM (inactive)	18.7 µM (inactive)	37.2 µM (inactive)	22.7 µM (inactive)	60.4 µM (inactive)	22.8 µM (inactive)	27.2 µM (inactive)	15.4 µM (inactive)	43.8 µM (inactive)	35.3 µM (inactive)	
Cc1cc(C)nc(NC(=S)Nc2ccc(Cl)cc2)c1	22.5 µM (inactive)	> 100 µM (inactive)		> 100 µM (inactive)	> 100 µM (inactive)		> 100 µM (inactive)	> 100 µM (inactive)	> 100 µM (inactive)	> 100 µM (inactive)		66.7 µM (inactive)	29.2 µM (inactive)	20.1 µM (inactive)	21.3 µM (inactive)	> 100 µM (inactive)	> 100 µM (inactive)	33.7 µM (inactive)	
O=C1CCCc2cc3c(cc21)CC1(Cc2ccccc2C1)C3	6.28 µM (inactive)	6.17 µM (inactive)	4.55 µM (inactive)			16.1 µM (inactive)	3.9 µM (inactive)	1.84 µM (inactive)	6.53 µM (inactive)	1.42 µM (inactive)	6.78 µM (inactive)		7.66 µM (inactive)	6.28 µM (inactive)		15 µM (inactive)		7.16 µM (inactive)	10.8 µM (inactive)
Nc1nc(N)c(C2=CCNCC2)c(=O)[nH]1	> 100 µM (inactive)	> 100 µM (inactive)	> 100 µM (inactive)	> 100 µM (inactive)	> 100 µM (inactive)		> 100 µM (inactive)	> 100 µM (inactive)			> 100 µM (inactive)	> 100 µM (inactive)	> 100 µM (inactive)	> 100 µM (inactive)	> 100 µM (inactive)	> 100 µM (inactive)	> 100 µM (inactive)		> 100 µM (inactive)
CN(C)/C=C/c1nnc([N+](=O)[O-])s1	11.3 µM (inactive)	19.9 µM (inactive)	15.5 µM (inactive)		15.2 µM (inactive)	17.3 µM (inactive)	5.94 µM (inactive)		2.69 µM (inactive)	4.28 µM (inactive)	19.3 µM (inactive)	11.6 µM (inactive)		17.1 µM (inactive)	14.6 µM (inactive)	17.2 µM (inactive)	26.3 µM (inactive)	25.9 µM (inactive)	
CC1=C(c2ccccc2)NC(=S)C(C)C(c2ccccc2)=N1 (stereo not drawn)	74.5 µM (inactive)	40.1 µM (inactive)	11.7 µM (inactive)	12.1 µM (inactive)	40.4 µM (inactive)	34.3 µM (inactive)	27.5 µM (inactive)	12.6 µM (inactive)	30 µM (inactive)	16.9 µM (inactive)	9.91 µM (inactive)	34.4 µM (inactive)	> 100 µM (inactive)	83.4 µM (inactive)	27.5 µM (inactive)		> 100 µM (inactive)	58.2 µM (inactive)	
COC1CCC(=O)N1CN(C(C)=O)c1ccc(C)cc1 (stereo not drawn)	> 100 µM (inactive)	> 100 µM (inactive)	> 100 µM (inactive)	0.0569 µM (active)	> 100 µM (inactive)	> 100 µM (inactive)	> 100 µM (inactive)		> 100 µM (inactive)	> 100 µM (inactive)	> 100 µM (inactive)	> 100 µM (inactive)	> 100 µM (inactive)	> 100 µM (inactive)	> 100 µM (inactive)	> 100 µM (inactive)	> 100 µM (inactive)	> 100 µM (inactive)	
CC(CC(=O)N1C2CC3CCC2(CS1(=O)=O)C3(C)C)[Si](C)(C)C (stereo not drawn)	> 100 µM (inactive)	> 100 µM (inactive)	> 100 µM (inactive)	> 100 µM (inactive)	> 100 µM (inactive)	> 100 µM (inactive)	> 100 µM (inactive)	> 100 µM (inactive)	> 100 µM (inactive)	> 100 µM (inactive)	> 100 µM (inactive)	> 100 µM (inactive)		> 100 µM (inactive)	> 100 µM (inactive)		> 100 µM (inactive)	> 100 µM (inactive)	
C=C1C(C[C@@H]2O[C@H]3C[C@H]4O[C@@]5(C[C@@H]6O[C@]7(C[C@H](C)[C@@H]8O[C@@H]9CC(C(O)CO)O[C@@H]9C[C@@H]8O7)C[C@H](C)[C@@H]6O5)C[C@H]4O[C@H]3[C@H](C)[C@H]2O)O[C@@H](CC[C@@H]2O[C@@H](CC[C@@]34CC5O[C@H]6C(O[C@H]7CC[C@H](CC(=O)OC)O[C@@H]7[C@@H]6O3)[C@H]5O4)CC2=C)C[C@H]1C (stereo partly drawn)	< 0.0001 µM (active)	0.000108 µM (active)	0.000658 µM (active)	< 0.0001 µM (active)	< 0.0001 µM (active)	< 0.0001 µM (active)	< 0.0001 µM (active)	< 0.0001 µM (active)	< 0.0001 µM (active)	< 0.0001 µM (active)	< 0.0001 µM (active)	< 0.0001 µM (active)	0.00142 µM (active)	0.000209 µM (active)	0.000184 µM (active)		0.000304 µM (active)	0.0152 µM (active)	
O=C1Nc2ccc(Br)cc2/C1=N/NC(=S)Nc1ccc(F)cc1	7.67 µM (inactive)		3.43 µM (inactive)		4.3 µM (inactive)		3.87 µM (inactive)	1.6 µM (inactive)	4.7 µM (inactive)	2.98 µM (inactive)	0.794 µM (active)	1.59 µM (inactive)	43.2 µM (inactive)	4.25 µM (inactive)	4.31 µM (inactive)	10.9 µM (inactive)		5.86 µM (inactive)	3.61 µM (inactive)
COC(=O)C(CO)NC(=O)C(CSC(c1ccccc1)(c1ccccc1)c1ccccc1)NC(=O)OCc1ccccc1 (stereo not drawn) (Cbz-Cys(Trt)-Ser-OMe; configuration not given here)	20.9 µM (inactive)	13.4 µM (inactive)	21.2 µM (inactive)	0.0398 µM (active)	19.1 µM (inactive)	14.9 µM (inactive)	12.3 µM (inactive)	5.75 µM (inactive)	15.7 µM (inactive)		17.9 µM (inactive)	8.81 µM (inactive)	17.7 µM (inactive)	14.5 µM (inactive)	17.7 µM (inactive)	16.9 µM (inactive)	19.5 µM (inactive)	24.5 µM (inactive)	15.2 µM (inactive)
